{"source": "patent US20020182749A1", "about": "“Sample evaporative control” (ACLARA BioSciences, Inc., priority 1999, published 2002)", "key": {"[1]": {"target": "T1, rhodamine-labeled streptavidin (Streptomyces avidinii, UniProt P22629)", "T1 construct": "purchased Molecular Probe", "T1 sequence (P22629 25-183)": "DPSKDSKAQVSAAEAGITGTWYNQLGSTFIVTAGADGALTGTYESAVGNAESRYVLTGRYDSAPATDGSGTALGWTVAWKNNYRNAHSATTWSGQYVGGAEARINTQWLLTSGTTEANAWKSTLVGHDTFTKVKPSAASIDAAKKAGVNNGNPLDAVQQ", "experiment": "inhibition of antigen-receptor binding, fluorescein-biotin / rhodamine-labeled streptavidin, read at 520 nm", "experimental": "In the next study, the channel was filled with varying concentrations of biotin in the range of 0 to 5 μM and 100 nl of rhodamine-labeled streptavidin (625 nM) followed by 100 nl of 1.0 μM fluorescein-biotin added to the sample port. After incubating for 60 min., the signal was detected at 520±20 nm. The results are reported as fraction inhibition. The following tables provide the results.\nUsing the above reagents and protocol, an inhibition assay was performed. The protocol was to fill the channel with 0, 30, 60, 180, 240, 500, 600, 1000, 5000 […] of biotin, respectively, followed by dispensing 100 nl of rhodamine labeled receptor into the sample port. After dispensing 100 nl of 1.0 μM fluorescein labeled antigen into the sample port, the reaction mixture was incubated for 60 minutes. The fluorescence was recorded by exciting at 480±20 nm and reading the emission at 520 nm±20 nm As the inhibitor concentration increased, the fluorescence intensity increased, indicating an increased inhibition. The increase in the fluorescent signal as a function of inhibitor concentration was converted to the percentage of inhibition."}, "rhodamine-streptavidin": {"target": "rhodamine-streptavidin (Streptomyces avidinii, UniProt P22629)", "sequence (P22629 25-183)": "as above", "experiment": "FRET binding inhibition, fluorescein-biotin / rhodamine-streptavidin, read at 600 nm", "conditions": "fluorescein-biotin 50 μM, rhodamine-streptavidin 25 μM, varying biotin", "experimental": "In another series of studies binding assays were performed using fluorescence resonance energy transfer. The procedure employed is as follows. The channel was rinsed and filled with 25 μl of rhodamine labeled streptavidin and 100 nl of fluorescein labeled biotin dispensed in the sample port. The concentration of the antigen varied from 0 to 100 μM by 2-fold dilutions. The signal detection system was as described, except that emission was detected at 600±20 nm. The energy transfer increased corresponding to the increase in antigen. The study was repeated varying the amount of labeled streptavidin while keeping the biotin-fluorescein at 25 μM. The background FRET signal contributed by rhodamine-streptavidin alone was substantially negligible, when the concentration of rhodamine-streptavidin was greater than about 2 μM. The following tables provide the results for the two studies.\nIn the next study, the effect of inhibitor on the observed signal was investigated. Fluorescein-biotin was maintained at 50 μM and rhodamine-streptavidin at 25 μM. the signal was read at 600±20 nm at varying concentrations of biotin as a binding inhibitor, with 100 nl of the binding inhibitor being added to the sample port."}, "alkaline phosphatase [2]": {"tested_on": "alkaline phosphatase", "experiment": "alkaline phosphatase inhibition study on capillary electrophoresis card, FDP substrate", "type": "biochemical", "conditions": "1.3 mU/ml alkaline phosphatase, 3.33 μM FDP, increasing PNPP", "experimental": "The experimental procedure was as follows: the assay well is covered by tape. 5 μl of buffer was added to the reservoirs. 500 nl of the fluorescein or assay mixture was pipetted into the assay well. For the alkaline phosphatase assay, enzyme and substrate with or without inhibitor was mixed in a tube and then 500 nl of the assay mixture was pipetted into the assay well. The detection was performed at 7 mm distance from the injector. The particular conditions for each determination are set forth with the figure.\nFIG. 17 illustrates the alkaline phosphatase activity for the different incubation times. As shown in the electropherograms, two product peaks (the first peak is fluorescein mono phosphate and the 2nd peak is fluorescein) are well separated from each other. Additionally, the use of longer incubation time results in more conversion of FDP (fluorescein di-phosphate as a substrate) to the FMP (fluorescein mono-phosphate) and finally to fluorescein. FIG. 18 depicts a linear calibration curve for the alkaline phosphatase using the card. For the inhibition study, PNPP which is a non-fluorescent substrate for the alkaline phosphatase and competes with FDP which is a fluorescent substrate for the enzyme, is added to the assay mixture at a number of different concentrations."}, "alkaline phosphatase [3]": {"tested_on": "alkaline phosphatase", "experiment": "competitive inhibition assay, alkaline phosphatase with AutoPhos substrate", "type": "biochemical", "experimental": "The next study evaluated the system using a competitive inhibition assay, 4-Nitrophenyl phosphate (PNPP) (Sigma Chemical Co., St. Louis, Mo.) was used as a non-fluorescent substrate for alkaline phosphatase (20 femtomoles) competing with the AutoPhos substrate. The channel was rinsed with AutoPhos buffer and filled with […] AutoPhos substrate. Into the sample port was introduced 100 nl of PNPP at concentrations varying from 0 to 10 mM and the fluorescent signal was determined at different reaction time points.\nThe channel was rinsed with AutoPhos buffer and then filled with about 10 μl of 1 mM AutoPhos substrate. 50 nl of alkaline phosphatase was then dispensed into the sample port. The amount of enzyme dispensed into the sample port increased from 31.25 attomole to 62.5 femtomoles by a factor of 2. Enzyme solutions of different concentrations were prepared in individual wells of a 96-well microtitre plate. Fluorescence was excited at 480 nm±20 nm and emission collected at 520±20 nm. The signals were recorded at different time points, 0, 5, 10, 15, up to 35 minutes.\nThe next assay was a competitive inhibition assay using the following protocol: 4-Nitrophenyl phosphate (PNPP) was used as a non-fluorescent substrate for competing for alkaline phosphatase with AutoPhos substrate. After rinsing the channels with AutoPhos buffer, the channel was filled with 1 mM AutoPhos substrate. 100 nl of PNPP was dispensed at different concentrations ranging form 0 to 60 mM. The fluorescent signal was measured at different reaction time points. The fluorescent signal as a function of different inhibitor concentrations is tabulated as following."}, "alkaline phosphatase [4]": {"tested_on": "alkaline phosphatase", "experiment": "alkaline phosphatase inhibition in device ports, fluorescein diphosphate substrate", "type": "biochemical", "conditions": "30 nl 0.1 nM enzyme", "text": "The upper plate is about 1 mm in height and the lower plate is also about 1 mm in height. The port for introducing solutions is 1 mm in diameter and about 900 to 950 μm in height, while the channel substantially extends the remaining length of the upper sheet. The channel was varied from about 0.2 mm to 3.0 mm in width, where the interface between the port or well and the channel varied, with either the port or the channel determining the area of interface. The reservoirs have a diameter of about 2 mm. The channels were treated with 2N sodium hydroxide for 5 mins. using a vacuum pump to ensure that the basic solution extends through the channels and reservoirs. The ports or wells appear to be unaffected by this treatment, so that the channels and reservoirs have a hydrophilic surface, while the ports have a hydrophobic surface. One or more of the ports are used in each of the studies. Common to each of the experiments is to fill the device with 10 μl of 25 μM fluorescein diphosphate in 50 mM Tris buffer (pH 10.0) added to each of the inlet reservoirs, after prewetting the device.\nIn the next study, the effect of enzyme inhibitor was investigated. The channel was 1 mm in width. […] The fluorescence development is monitored with a CCD camera. Fluorescence is substantially confined to the ports and the fluorescent signal is related to the concentration of inhibitor introduced into the port."}, "CYP1A2": {"target": "CYP1A2 (Homo sapiens, UniProt P05177)", "sequence (P05177 whole entry)": "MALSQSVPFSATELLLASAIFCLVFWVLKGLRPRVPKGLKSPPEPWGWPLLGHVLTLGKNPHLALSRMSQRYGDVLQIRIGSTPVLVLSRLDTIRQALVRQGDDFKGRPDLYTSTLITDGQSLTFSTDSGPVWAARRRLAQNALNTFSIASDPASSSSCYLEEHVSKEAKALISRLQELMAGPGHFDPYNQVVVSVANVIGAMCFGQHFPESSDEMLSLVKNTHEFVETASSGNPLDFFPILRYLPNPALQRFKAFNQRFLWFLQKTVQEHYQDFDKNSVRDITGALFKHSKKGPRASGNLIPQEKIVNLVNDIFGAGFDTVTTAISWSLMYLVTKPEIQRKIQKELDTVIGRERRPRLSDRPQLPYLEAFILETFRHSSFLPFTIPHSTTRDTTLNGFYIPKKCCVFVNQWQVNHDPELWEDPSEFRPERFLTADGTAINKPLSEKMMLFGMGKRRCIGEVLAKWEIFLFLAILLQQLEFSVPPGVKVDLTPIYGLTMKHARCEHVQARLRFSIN", "experiment": "in vitro", "quoted_text": "B: Inhibition in CYP450 1A2 Assay:\nMake 500 M CEC substrate for 1A2.\nFor each of the dilutions of furafylline make Buffer Mix:\nAdd 5 μl of the buffer mix to both of the side wells of the channels. Because the solution contains Pluronic F68, the solution in the middle assay well rises to the top. Dilute CYP1A2 enzyme 2:1 with water.\nAdd 300 nl of diluted enzyme to assay (middle) well.\nIncubate at 37° C. for 35 minutes.\nTake RFU readings using Molecular Devices F-max plate reader. F-max settings: Filter pair 390/460; Int.20 ms; speed 10."}, "[5]": {"conditions": "read-out: Fraction of Inhibition"}}, "note": "Like-named read-outs stand apart in the source and are kept apart here.", "data": [{"compound": "O=C(O)CCCC[C@@H]1SC[C@@H]2NC(=O)N[C@@H]21", "note": "[biotin, D(+)-Biotin]", "values": [{"measurement": "inhibition at 0.03 µM", "setting": "[1]; read-out: % of Inhibition", "result": 3.85, "unit": "%"}, {"measurement": "inhibition at 0.06 µM", "setting": "[1]; read-out: % of Inhibition", "result": 3.1, "unit": "%"}, {"measurement": "inhibition at 0.18 µM", "setting": "[1]; read-out: % of Inhibition", "result": 5, "unit": "%"}, {"measurement": "inhibition at 0.24 µM", "setting": "[1]; read-out: % of Inhibition", "result": 5.14, "unit": "%"}, {"measurement": "inhibition at 0.5 µM", "setting": "[1]; read-out: % of Inhibition", "result": 22.4, "unit": "%"}, {"measurement": "inhibition at 0.6 µM", "setting": "[1]; read-out: % of Inhibition", "result": 36.6, "unit": "%"}, {"measurement": "inhibition at 1 µM", "setting": "[1]; read-out: % of Inhibition", "result": 95, "unit": "%"}, {"measurement": "inhibition at 5 µM", "setting": "[1]; read-out: % of Inhibition", "result": 100, "unit": "%"}, {"measurement": "inhibition at 0.03 µM", "setting": "[1]; [5]", "result": 3.85, "unit": "%"}, {"measurement": "inhibition at 0.06 µM", "setting": "[1]; [5]", "result": 3.1, "unit": "%"}, {"measurement": "inhibition at 0.18 µM", "setting": "[1]; [5]", "result": 5, "unit": "%"}, {"measurement": "inhibition at 0.24 µM", "setting": "[1]; [5]", "result": 5.14, "unit": "%"}, {"measurement": "inhibition at 0.5 µM", "setting": "[1]; [5]", "result": 22.4, "unit": "%"}, {"measurement": "inhibition at 0.6 µM", "setting": "[1]; [5]", "result": 36.6, "unit": "%"}, {"measurement": "inhibition at 1 µM", "setting": "[1]; [5]", "result": 95, "unit": "%"}, {"measurement": "inhibition at 5 µM", "setting": "[1]; [5]", "result": 100, "unit": "%"}, {"measurement": "energy transfer (FRET signal at 600 nm)", "setting": "rhodamine-streptavidin", "result": "decreased with increase of binding inhibitor"}]}, {"compound": "O=[N+]([O-])c1ccc(OP(=O)(O)O)cc1", "note": "[PNPP, 4-Nitrophenyl phosphate]", "values": [{"measurement": "effect on FDP alkaline phosphatase activity", "setting": "alkaline phosphatase [2]", "result": "reduction of FDP alkaline phosphates activity"}, {"measurement": "Fluorescent Signal", "setting": "alkaline phosphatase [3]; Inhibitor conc. 0.001 mM", "result": "4.5 ×103"}, {"measurement": "Fluorescent Signal", "setting": "alkaline phosphatase [3]; Inhibitor conc. 0.0025 mM", "result": "4.0 ×103"}, {"measurement": "Fluorescent Signal", "setting": "alkaline phosphatase [3]; Inhibitor conc. 0.005 mM", "result": "4.0 ×103"}, {"measurement": "Fluorescent Signal", "setting": "alkaline phosphatase [3]; Inhibitor conc. 0.01 mM", "result": "3.5 ×103"}, {"measurement": "Fluorescent Signal", "setting": "alkaline phosphatase [3]; Inhibitor conc. 0.02 mM", "result": "2.6 ×103"}, {"measurement": "Fluorescent Signal", "setting": "alkaline phosphatase [3]; Inhibitor conc. 0.3125 mM", "result": "2.0 ×103"}, {"measurement": "Fluorescent Signal", "setting": "alkaline phosphatase [3]; Inhibitor conc. 0.625 mM", "result": "1.6 ×103"}, {"measurement": "Fluorescent Signal", "setting": "alkaline phosphatase [3]; Inhibitor conc. 1.25 mM", "result": "1.6 ×103"}, {"measurement": "Fluorescent Signal", "setting": "alkaline phosphatase [3]; Inhibitor conc. 5 mM", "result": "1.6 ×103"}, {"measurement": "Fluorescent Signal", "setting": "alkaline phosphatase [3]; Inhibitor conc. 10 mM", "result": "1.5 ×103"}, {"measurement": "Fluorescence Signal", "setting": "alkaline phosphatase [3]; [Inhibitor] 0.001 mM", "result": 4527, "unit": "RFU"}, {"measurement": "Fluorescence Signal", "setting": "alkaline phosphatase [3]; [Inhibitor] 0.0025 mM", "result": 4000, "unit": "RFU"}, {"measurement": "Fluorescence Signal", "setting": "alkaline phosphatase [3]; [Inhibitor] 0.005 mM", "result": 4000, "unit": "RFU"}, {"measurement": "Fluorescence Signal", "setting": "alkaline phosphatase [3]; [Inhibitor] 0.01 mM", "result": 3500, "unit": "RFU"}, {"measurement": "Fluorescence Signal", "setting": "alkaline phosphatase [3]; [Inhibitor] 0.02 mM", "result": 2600, "unit": "RFU"}, {"measurement": "Fluorescence Signal", "setting": "alkaline phosphatase [3]; [Inhibitor] 0.3125 mM", "result": 2000, "unit": "RFU"}, {"measurement": "Fluorescence Signal", "setting": "alkaline phosphatase [3]; [Inhibitor] 0.625 mM", "result": 1600, "unit": "RFU"}, {"measurement": "Fluorescence Signal", "setting": "alkaline phosphatase [3]; [Inhibitor] 1.25 mM", "result": 1600, "unit": "RFU"}, {"measurement": "Fluorescence Signal", "setting": "alkaline phosphatase [3]; [Inhibitor] 5 mM", "result": 1600, "unit": "RFU"}, {"measurement": "Fluorescence Signal", "setting": "alkaline phosphatase [3]; [Inhibitor] 10 mM", "result": 1500, "unit": "RFU"}, {"measurement": "Fluorescence Signal", "setting": "alkaline phosphatase [3]; [Inhibitor] 60 mM", "result": 750, "unit": "RFU"}]}, {"compound": "Cc1ncc(COP(=O)(O)O)c(C=O)c1O", "note": "[pyridoxal phosphate]", "values": [{"measurement": "fluorescence development in port", "setting": "alkaline phosphatase [4]; 30 nl of 25 μM inhibitor", "result": "only moderately inhibited"}, {"measurement": "fluorescence development in port", "setting": "alkaline phosphatase [4]; 30 nl of 250 μM inhibitor, at 30 mins", "result": "still very faint"}]}, {"compound": "Cc1nc2c([nH]1)c(=O)n(C)c(=O)n2Cc1ccco1", "note": "[furafylline]", "values": [{"measurement": "inhibition at 35 min, 0.133 µM", "setting": "CYP1A2", "result": 2, "unit": "%"}, {"measurement": "inhibition at 35 min, 0.665 µM", "setting": "CYP1A2", "result": 31, "unit": "%"}, {"measurement": "inhibition at 35 min, 1.33 µM", "setting": "CYP1A2", "result": 64, "unit": "%"}, {"measurement": "inhibition at 35 min, 6.65 µM", "setting": "CYP1A2", "result": 72, "unit": "%"}, {"measurement": "inhibition at 35 min, 13.3 µM", "setting": "CYP1A2", "result": 75, "unit": "%"}, {"measurement": "inhibition at 35 min, 66.5 µM", "setting": "CYP1A2", "result": 77, "unit": "%"}, {"measurement": "inhibition at 35 min, 133 µM", "setting": "CYP1A2", "result": 78, "unit": "%"}]}]}
